Data from PubChem BioAssay (NCI).
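48-hour exposure; five concentrations; linearly interpolated endpoints. TGI denotes the concentration required for complete inhibition of growth.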

Columns and labels:
Experiment in all cases: NCI-60 cell line screen, 48 h
OVCAR-4 ovarian = test system: OVCAR-4 ovarian
PC-3 prostate = test system: PC-3 prostate
SK-MEL-2 melanoma = test system: SK-MEL-2 melanoma
UACC-257 melanoma = test system: UACC-257 melanoma
HCT-15 colon = test system: HCT-15 colon
KM12 colon = test system: KM12 colon
ACHN renal = test system: ACHN renal
786-0 renal = test system: 786-0 renal
UACC-62 melanoma = test system: UACC-62 melanoma
UO-31 renal = test system: UO-31 renal
SNB-75 CNS = test system: SNB-75 CNS
COLO 205 colon = test system: COLO 205 colon
RPMI-8226 leukemia = test system: RPMI-8226 leukemia
SF-268 CNS = test system: SF-268 CNS
HL-60(TB) leukemia = test system: HL-60(TB) leukemia
LOX IMVI melanoma = test system: LOX IMVI melanoma
U251 CNS = test system: U251 CNS
NCI/ADR-RES ovarian = test system: NCI/ADR-RES ovarian
HCT-116 colon = test system: HCT-116 colon
HT29 colon = test system: HT29 colon
SN12C renal = test system: SN12C renal
SW-620 colon = test system: SW-620 colon
OVCAR-3 ovarian = test system: OVCAR-3 ovarian
SK-MEL-28 melanoma = test system: SK-MEL-28 melanoma
HOP-62 NSCLC = test system: HOP-62 NSCLC
HOP-92 NSCLC = test system: HOP-92 NSCLC
DU-145 prostate = test system: DU-145 prostate
MDA-N = test system: MDA-N
SF-295 CNS = test system: SF-295 CNS
MOLT-4 leukemia = test system: MOLT-4 leukemia
CCRF-CEM leukemia = test system: CCRF-CEM leukemia
T-47D breast = test system: T-47D breast
SK-MEL-5 melanoma = test system: SK-MEL-5 melanoma
MDA-MB-435 = test system: MDA-MB-435
NCI-H23 lung = test system: NCI-H23 lung
A498 renal = test system: A498 renal
TK-10 renal = test system: TK-10 renal
MDA-MB-231 breast = test system: MDA-MB-231 breast
NCI-H460 lung = test system: NCI-H460 lung
K-562 leukemia = test system: K-562 leukemia
BT-549 breast = test system: BT-549 breast
A549 NSCLC = test system: A549 NSCLC
CAKI-1 renal = test system: CAKI-1 renal
SNB-19 CNS = test system: SNB-19 CNS
NCI-H226 lung = test system: NCI-H226 lung
HS 578T breast = test system: HS 578T breast
HCC-2998 colon = test system: HCC-2998 colon
SK-OV-3 ovarian = test system: SK-OV-3 ovarian
SR leukemia = test system: SR leukemia
EKVX NSCLC = test system: EKVX NSCLC
IGROV1 ovarian = test system: IGROV1 ovarian
SF-539 CNS = test system: SF-539 CNS
MCF7 breast = test system: MCF7 breast
MALME-3M melanoma = test system: MALME-3M melanoma
OVCAR-5 ovarian = test system: OVCAR-5 ovarian
M14 melanoma = test system: M14 melanoma
OVCAR-8 ovarian = test system: OVCAR-8 ovarian
RXF 393 renal = test system: RXF 393 renal
NCI-H522 lung = test system: NCI-H522 lung

Measured: TGI

COc1cc(C2(O)c3ccccc3C3=NCCN32)cc(OC)c1OC (configuration not stated)
not listed: EKVX NSCLC | IGROV1 ovarian | SF-539 CNS | MCF7 breast | MALME-3M melanoma | OVCAR-5 ovarian | M14 melanoma | OVCAR-8 ovarian | RXF 393 renal | NCI-H522 lung
> 100 µM: all other assays above

CC1=NN(C(=O)c2ccccc2O)C(c2ccccc2Cl)C1C(=O)Nc1ccccc1 (configuration not stated)
> 85.7 µM: MOLT-4 leukemia
> 51.3 µM: OVCAR-3 ovarian
51.9 µM: MALME-3M melanoma
> 32.4 µM: IGROV1 ovarian
7.24 µM: HL-60(TB) leukemia
> 90.8 µM: RPMI-8226 leukemia
30.5 µM: SK-MEL-5 melanoma
> 49.5 µM: NCI/ADR-RES ovarian
30.8 µM: SF-268 CNS
> 44.8 µM: SN12C renal
5.68 µM: SF-539 CNS
33.1 µM: M14 melanoma
> 36.5 µM: LOX IMVI melanoma
8.02 µM: NCI-H226 lung
0.692 µM: NCI-H522 lung
> 44.9 µM: 786-0 renal
> 51.2 µM: UACC-62 melanoma
> 53.1 µM: NCI-H460 lung
> 43.7 µM: OVCAR-5 ovarian
> 43.5 µM: DU-145 prostate
0.245 µM: CCRF-CEM leukemia
not listed: UO-31 renal | SNB-75 CNS | HCT-116 colon | A498 renal | BT-549 breast
> 100 µM: all other assays above

COc1ccc2c(c1)N=C1CSC(c3c(Cl)cccc3[N+](=O)[O-])N1C2 (configuration not stated)
84.6 µM: RPMI-8226 leukemia | NCI-H226 lung
39.5 µM: SK-MEL-5 melanoma
98.5 µM: SNB-75 CNS
62.9 µM: NCI-H460 lung | BT-549 breast
48.1 µM: UACC-62 melanoma
47.7 µM: HCC-2998 colon
79.3 µM: HL-60(TB) leukemia
not listed: OVCAR-3 ovarian | DU-145 prostate | CCRF-CEM leukemia | A498 renal | SR leukemia
> 100 µM: all other assays above

CO/N=C(/C(=O)OC)c1ccccc1COc1cccc(C(F)(F)F)c1
43.2 µM: EKVX NSCLC
49 µM: HL-60(TB) leukemia
92 µM: KM12 colon
34.4 µM: MOLT-4 leukemia
85.1 µM: MCF7 breast
64.7 µM: T-47D breast
17.9 µM: SK-MEL-5 melanoma
70.2 µM: NCI-H522 lung
55.4 µM: TK-10 renal
65.1 µM: CCRF-CEM leukemia
98 µM: RXF 393 renal
56.1 µM: CAKI-1 renal
25.4 µM: RPMI-8226 leukemia
52.6 µM: UACC-257 melanoma
93.7 µM: OVCAR-3 ovarian
46.1 µM: MALME-3M melanoma
not listed: BT-549 breast | HCC-2998 colon | SR leukemia | OVCAR-8 ovarian
> 100 µM: all other assays above
